Source: patent publication US20140045908A1, “HSP90 INHIBITORY COMPOUNDS IN TREATING JAK/STAT SIGNALING-MEDIATED CANCERS” (SYNTA PHARMACEUTICALS CORP., priority 2011, published 2014)

Assays:
[1] = system: HEL92.1.7 cells (JAK2V617F); test: HEL92.1.7 disseminated (orthotopic) leukemia survival model; assay type: in vivo
Experimental: Beginning 1 day after tumor cell implantation, ganetespib was i.v. dosed at its HNSTD (25 mg/kg) on a five-times per week schedule for 3 weeks through day 19 ([…]). *P<0.0001; 2-sided log-rank test.
Eight-week-old female immunodeficient CB-17/Icr-Prkdcscid/Crl (SCID) mice (Charles River Laboratories, Wilmington, Mass.) were maintained in a pathogen-free environment, and all in vivo procedures were approved by the Synta Pharmaceuticals Corp. Institutional Animal Care and Use Committee. For the MV4-11 model, tumor cells were subcutaneously implanted in SCID mice as previously described (34). Tumor volumes (V) were calculated by caliper measurements of the width (W), length (L), and thickness (T) of each tumor using the formula: V=0.5236 (LWT).
For the HEL92.1.7 model, SCID mice were i.v. injected via the tail vein with 5×10^6 cells in phosphate-buffered saline (PBS) on day 0. Implanted animals were then randomized into groups of 10 and i.v. dosed via the tail vein at 10 mL/kg body weight with either vehicle or ganetespib formulated in 10/18 DRD. Animals were weighed daily and removed from the study at the first sign of hind limb paralysis, which occurred in 100% of vehicle-treated animals. Median overall survival was estimated using the Kaplan-Meier method and the log-rank test (2-sided) for statistical significance. Tumor cells were identified as either CD44- or CD54-positive cells within the CD45-negative population. Spinal column tumor burden was determined by quantitative image analysis with ImageJ software (Wayne Rasband, National Institute of Mental Health) of hematoxylin and eosin stained tissue sections.
For both models, studies were conducted at the highest non-severely toxic doses (NHSTDs) of 150 mg/kg ganetespib one-time per week or 25 mg/kg ganetespib 5×/week for 3 weeks based on prior tolerability studies conducted in non-tumor bearing mice.

[2] = system: JAK2/STAT3 signaling in HCC827 cells; test: Western blot of constitutive and IL-6 induced STAT3 activity in HCC827 cells; assay type: cell-based, human
Experimental: HCC827 lung cancer cells were treated with increasing concentrations of ganetespib or P6 for 24 h followed by a 15 min stimulation with or without 50 ng/ml human recombinant IL-6. The levels of JAK2, total and phospho-STAT3, and PIM2 were analyzed by western blot. GAPDH is included as a loading control.
(§1) Cells were disrupted in lysis buffer (CST) and solubilized in 2% SDS. Xenograft tumors (average volume of 100-200 mm3) were excised, cut in half, and flash frozen in liquid nitrogen. Each tumor fragment was lysed in 0.5 mL of lysis buffer using a FastPrep-24 homogenizer and Lysing Matrix A (MP Biomedicals, Solon, Ohio, USA) and lysates clarified by centrifugation. Equal amounts of proteins were resolved by SDS-PAGE and immunoblotted with indicated antibodies. The antigen-antibody complex was visualized and quantitated using an Odyssey system (LI-COR, Lincoln, Nebr., USA).

HEL92.1.7 cells = test: Cell viability assay (AlamarBlue, 72 h); assay type: cell-based, human
Experimental: All cell lines were obtained from the ATCC (Rockville, Md., USA), with the exception of SET-2 cells which were purchased from the German Collection of Microorganisms and Cell Cultures (DSMZ, Germany). Cells were maintained and cultured according to standard techniques at 37° C. in 5% (v/v) CO2 using culture medium recommended by the supplier.
Cells were grown in 96-well plates based on optimal growth rates determined empirically for each line. Twenty-four hours after plating, cells were dosed with the indicated compound or DMSO (0.3%) for 72 h. AlamarBlue (Invitrogen, Carlsbad, Calif., USA) was added (10% v/v) to the cells, and the plates were incubated for 3 h and subjected to fluorescence detection (Ex=545 nm, Em=600 nm) in a SpectraMax Plus 384 microplate reader (Molecular Devices, Sunnyvale, Calif., USA). Data are normalized to percent of control, with IC50 values based on a four-parameter logistic dose response curve (model 205) using XLfit version 5.1 from IDBS (Guildford, U.K.).

[3] = system: JAK/STAT signaling in SET-2 cells; test: Western blot of JAK/STAT signaling in SET-2 cells; assay type: cell-based, human; details: 24 h
Experimental: SET-2 cells were dosed with the indicated concentrations of ganetespib or 17-AAG for 24 h and analyzed to determine JAK/STAT protein and target levels using the antibodies indicated.
as §1

[4] = 24 h, absence of external ligand

Structure (SMILES): CC(C)c1cc(-c2nnc(O)n2-c2ccc3c(ccn3C)c2)c(O)cc1O [ganetespib, 3-(2,4-dihydroxy-5-isopropyl-phenyl)-4-(1-methyl-indol-5-yl)-5-hydroxy-[1,2,4] triazole]
- tumor cell burden in bone marrow and spinal cord (histological analysis) ([1]; 25 mg/kg i.v. 5×/week): dramatically decreased tumor cell burden
- median overall survival ([1]; 25 mg/kg i.v. 5×/week through day 19, SCID mice): 76.5 days
- body weight (tolerability) ([1]; 25 mg/kg i.v. 5×/week, after 3 weeks of dosing): no significant loss of body weight
- JAK2 expression [2, 4]: dose-dependent decrease in JAK2 expression
- constitutive STAT3 activity [2, 4]: loss of STAT3 activity
- JAK/STAT signaling stimulated by exogenous IL-6 ([2]; 24 h then 15 min 50 ng/ml IL-6): blocked JAK/STAT signaling stimulation
- fold more potent than 17-AAG, cell viability (HEL92.1.7 cells; 72 h): greater than 100 fold
- IC50 (HEL92.1.7 cells; Homo sapiens, HEL 92.1.7, 72 h, Alamar blue, read-out: IC50, loss of cellular viability): 20 nM
- concentration able to destabilize JAK2 sufficiently to result in loss of activated (phosphorylated) STAT3 and STAT5 expression [3]: 50 nM
